Data reported in patent US9012470B2 (Dart NeuroScience (Cayman) Ltd., priority 2010, dated 2015).
Counter-ions that a name gives are not always drawn.

How the values were obtained:
GABAA receptors = experiment: Electrophysiology assay, two-electrode voltage clamp in Xenopus oocytes expressing GABAA receptors; type: cell-based; conditions: GABA EC10, screening concentration of 10 μM, subunit combination not stated
Experimental: mRNA was prepared from lyophilized plasmid pellets containing cDNA inserts encoding the specific GABAA receptor subunit. cDNAs encoding the α2, α3, and γ3 subunits were subcloned into pBluescript, SK^−. cDNAs encoding the α1 and α5 subunits were subcloned into prC while cDNA encoding the β2 subunit was subcloned into pcDNA1. The cDNA construct encoding the γ2s subunit is in the pGH19 expression construct. Overnight cultures of transformed DH5a bacterial cells were performed to grow sufficient quantities for maxiprep isolation of the plasmid cDNA. The resulting plasmid cDNA was linearized by digestion with an appropriate restriction enzyme that cleaves distal to the cDNA insert (XbaI for α1,2, β2, and γ3 or NotI for α3,5 and γ2, respectively). Following digestion, plasmid cDNA was treated with proteinase K and extracted with phenol/chloroform/isoamyl alcohol, followed by ethanol precipitation. cDNA quality was assessed by agarose-gel electrophoresis (1.5% agarose gel). Samples were stored at −20° C. until use. In vitro transcription was performed with T7 RNA polymerase. mRNA was then stored at −80° C. until use. Plasmids were linearized with appropriate restriction enzymes before in vitro transcription using the Message Machine kit (Ambion, Austin, Tex.).
GABAA Receptor Expression in Xenopus oocytes.
GABAA receptor expression in Xenopus oocytes: Following 45 min of 0.15% Tricaine anesthesia, an ovarian section containing the follicular oocytes was removed from the frog through a lateral abdominal incision. Oocytes were immediately placed in a calcium-free solution (NaCl 96 mM, MgCl2 1 mM, KCl 2 mM, Hepes 50 mM, pyruvate 2.5 mM, gentamycin 100 μg/mL, penicillin-streptomycin 50 U/mL, pH 7.4). Following 1.5-2 hour incubation in 0.2% collagenase (type II, Sigma Chemical Co., St. Louis, Mo.) at room temperature, individual Dumont stage V and VI oocytes were transferred to an incubator and maintained overnight in Barth's solution (NaCl 84 mM, NaHCO3 2.4 mM, MgSO4 0.82 mM, KCl 1 mM, Ca(NO3)2 0.33 mM, CaCl2 0.41 mM, Tris/HCl 7.5 mM, pyruvate 2.5 mM, gentamycin 50 μg/mL, penicillin-streptomycin, 100 units/mL, pH 7.4) at 18-20° C. and used for experiments 1-5 days post-injection. Oocytes were injected solution using an electronic microinjector (Drummond, Broomall, Pa.) with 50 nL of RNA containing 0.3-0.5 ng of each subunit RNA in a 1:1:1 ratio. The injected oocytes were used for experiments after 1-5 days of incubation in Barth's solution at 18-20° C.
Measurements of ion currents from oocytes expressing GABAA receptors were performed using a Warner two-electrode voltage-clamp amplifier (Warner Instruments, Inc., Foster City, Calif.) (Park-Chung, M., et al. (1999) Brain Res. 830: 72-87 incorporated herein in its entirety). Microelectrodes were fabricated from borosilicate glass capillaries with a programmed pipette puller (Sutter Instrument Co., Calif.). Microelectrode resistance was 1-3 MΩ when filled with 3 M KCl. The oocyte recording chamber was continuously perfused with Ringer solution. Oocytes were clamped at a holding potential of −70 mV during data acquisition. The membrane current was filtered at 10 Hz and sampled at 100 Hz. Compounds were applied by a gravity-driven external perfusion system. The working volume of the recording chamber was 30 μL and the rate of the perfusion was approximately 50 μL/sec. Compound application was 10-20 sec followed by a 90 sec wash. Data acquisition and external perfusion was computer controlled by custom-developed software. All experiments were performed at room temperature (22-24° C.). Dose-response data from each oocyte were fitted to the Hill equation by non-linear regression using the equation: IGABA=Emax/(1+(EC50/c)^n^H)
Emax is the maximum response, EC50 is the concentration producing 50% of the maximal response, nH is the Hill coefficient and c is the concentration of agonist. […]

[1] = system: benzodiazepine site of GABAA; experiment: Binding assay, benzodiazepine site of GABAA (binding assay 1: rat brain, (3H)-flunitrazepam; binding assay 2: bovine hippocampal membranes, [3H]-RY80); conditions: radioligand binding; for % Inhibition at 0.1 μM: 0.1 μM test compound; for % Inhibition at 10 μM: 10 μM test compound
Experimental: The ability of a compound disclosed herein to act as ligand to the benzodiazepine site of GABAA can be determined using pharmacological models which are well known in the art using the following assay.
Binding assay 1: Whole brain (except cerebellum) of male Wistar derived rats weighing 175±25 g were used to prepare GABAA central benzodiazepine receptor in Na—K phosphate buffer pH 7.4. A 5 mg aliquot was incubated with 1 nM (^3H)-flunitrazepam for 60 minutes at 25° C. Experiments were performed in the presence or absence of 30 μM of GABA. Non-specific binding was estimated in the presence of 10 μM of diazepam. Membranes were filtered and washed, the filters were then counted to determine (^3H)-flunitrazepam specifically bound. Test compounds were tested in duplicate according to the required concentrations (Damm, H. W., et al. (1978) Res. Comm. Chem. Pathol. Pharmacol. 22: 597-560 incorporated herein in its entirety; Speth, R. C., et al. (1979) Life Sci. 24: 351-357 incorporated herein in its entirety).
Receptor Source: Bovine hippocampal membranes
Radioligand: [3H]-RY80 (40-80 Ci/mmol)
Final ligand concentration—[0.8 nM]
Non-specific Determinant: L-655,708—[0.5 μM]
Binding assay 2 followed procedures based on Li and Szabo (Li M., Szabo A., Rosenberg H. Evaluation of native GABAA receptors containing an α5 subunit. Eur. J. Pharmacol. 413: 63-72 (2001)). Incubation Conditions: Reactions are carried out in 50 mM Tris-Citrate (pH 7.8) containing 200 mM NaCl at 0-4° C. for 60 minutes. The reaction is terminated by rapid vacuum filtration onto glass fiber filters. Radioactivity trapped onto the filters is determined and compared to control values in order to ascertain any interactions of test compound with the benzodiazepine (central) binding site.

Structure (SMILES)	EP Modulation (GABAA receptors)	% Inhibition at 0.1 μM [1]	% Inhibition at 10 μM [1]
CC(C)N1CCN(C(=O)n2ncc3c4nn(-c5ccccc5)c(=O)c-4c[nH]c32)CC1 [Compound 7d, 6-(4-isopropylpiperazine-1-carbonyl)-2-phenyl-5,6-dihydrodipyrazolo[3,4-b:3′,4′-d]pyridin-3(2H)-one]	Positive	C (C indicates % inhibition <20%)	C (C indicates % inhibition <20%)
CNC(=O)n1ncc2c3nn(-c4ccccc4)c(=O)c-3c[nH]c21 [Compound 6c, N-methyl-3-oxo-2-phenyl-2,3-dihydrodipyrazolo[3,4-b:3′,4′-d]pyridine-6(5H)-carboxamide]	D (D indicates negative modulation >20%)	B (B indicates % inhibition <80% and >20%)	A (A indicates % inhibition >80%)
CCNC(=O)n1cc2[nH]cc3c(=O)n(-c4ccc(F)cc4F)nc-3c2c1 [Compound 13g, 2-(2,4-Difluorophenyl)-N-ethyl-3-oxo-2,3-dihydropyrazolo[3,4-d]pyrrolo[3,4-b]pyridine-7(5H)-carboxamide]	D (D indicates negative modulation >20%)	B (B indicates % inhibition <80% and >20%)	A (A indicates % inhibition >80%)
CC(C)CNC(=O)n1ncc2c3nn(-c4ccccc4)c(=O)c-3c[nH]c21 [Compound 6e, N-isobutyl-3-oxo-2-phenyl-2,3-dihydrodipyrazolo[3,4-b:3′,4′-d]pyridine-6(5H)-carboxamide]		C (C indicates % inhibition <20%)	A (A indicates % inhibition >80%)
CN(C)C(=O)n1ncc2c3nn(-c4ccccc4)c(=O)c-3c[nH]c21 [Compound 7c, N,N-dimethyl-3-oxo-2-phenyl-2,3-dihydrodipyrazolo[3,4-b:3′,4′-d]pyridine-6(5H)-carboxamide. TFA]			B (B indicates % inhibition <80% and >20%)
CNC(=O)n1ncc2c3nn(-c4cccc(Cl)c4)c(=O)c-3c[nH]c21 [Compound 6ab, 2-(3-chlorophenyl)-N-methyl-3-oxo-2,3-dihydrodipyrazolo[3,4-b:3′,4′-d]pyridine-6(5H)-carboxamide]			A (A indicates % inhibition >80%)
CNC(=O)n1ncc2c3nn(-c4ccc(Cl)cn4)c(=O)c-3c[nH]c21 [Compound 6ax, 2-(5-chloropyridin-2-yl)-N-methyl-3-oxo-2,3-dihydrodipyrazolo[3,4-b:3′,4′-d]pyridine-6(5H)-carboxamide]			A (A indicates % inhibition >80%)
CC(C)CNC(=O)n1ncc2c3nn(-c4ccc(F)cc4F)c(=O)c-3c[nH]c21 [Compound 6aq, 2-(2,4-difluorophenyl)-N-isobutyl-3-oxo-2,3-dihydrodipyrazolo[3,4-b:3′,4′-d]pyridine-6(5H)-carboxamide]		C (C indicates % inhibition <20%)	B (B indicates % inhibition <80% and >20%)
CCNC(=O)n1ncc2c3nn(-c4ccc(F)cc4F)c(=O)c-3c[nH]c21 [Compound 6ao, 2-(2,4-difluorophenyl)-N-ethyl-3-oxo-2,3-dihydrodipyrazolo[3,4-b:3′,4′-d]pyridine-6(5H)-carboxamide]		B (B indicates % inhibition <80% and >20%)	A (A indicates % inhibition >80%)
CCNC(=S)n1ncc2c3nn(-c4ccc(C(C)C)cc4)c(=O)c-3c[nH]c21 [Compound 6au, N-ethyl-2-(4-isopropylphenyl)-3-oxo-2,3-dihydrodipyrazolo[3,4-b:3′,4′-d]pyridine-6(5H)-carbothioamide]		B (B indicates % inhibition <80% and >20%)	A (A indicates % inhibition >80%)
O=C(N1CCCC1)n1ncc2c3nn(-c4ccccc4)c(=O)c-3c[nH]c21 [Compound 6k, 2-phenyl-6-(pyrrolidine-1-carbonyl)-5,6-dihydrodipyrazolo[3,4-b:3′,4′-d]pyridin-3(2H)-one]		C (C indicates % inhibition <20%)	C (C indicates % inhibition <20%)
CC(C)NC(=O)n1ncc2c3nn(-c4ccc(Cl)cn4)c(=O)c-3c[nH]c21 [Compound 6aw, 2-(5-chloropyridin-2-yl)-N-isopropyl-3-oxo-2,3-dihydrodipyrazolo[3,4-b:3′,4′-d]pyridine-6(5H)-carboxamide]			B (B indicates % inhibition <80% and >20%)
CCCCNC(=O)n1ncc2c3nn(-c4ccccc4F)c(=O)c-3c[nH]c21 [Compound 6al, N-butyl-2-(2-fluorophenyl)-3-oxo-2,3-dihydrodipyrazolo[3,4-b:3′,4′-d]pyridine-6(5H)-carboxamide]		C (C indicates % inhibition <20%)	A (A indicates % inhibition >80%)
CCNC(=O)n1ncc2c3nn(-c4cc(C(F)(F)F)cc(C(F)(F)F)c4)c(=O)c-3c[nH]c21 [Compound 6q, 2-(3,5-bis(trifluoromethyl)phenyl)-N-ethyl-3-oxo-2,3-dihydrodipyrazolo[3,4-b:3′,4′-d]pyridine-6(5H)-carboxamide]			C (C indicates % inhibition <20%)
O=C(Nc1ccccc1)n1ccc2c3nn(-c4ccccc4)c(=O)c-3c[nH]c21 [Compound 17d, 3-Oxo-N,2-diphenyl-2,3-dihydropyrazolo[3,4-d]pyrrolo[2,3-b]pyridine-6(5H)-carboxamide]		C (C indicates % inhibition <20%)	C (C indicates % inhibition <20%)
CC(C)NC(=O)n1ncc2c3nn(-c4ccc(C(C)C)cc4)c(=O)c-3c[nH]c21 [Compound 6aa, N-isopropyl-2-(4-isopropylphenyl)-3-oxo-2,3-dihydrodipyrazolo[3,4-b:3′,4′-d]pyridine-6(5H)-carboxamide]			B (B indicates % inhibition <80% and >20%)
CC(C)NC(=O)n1cc2[nH]cc3c(=O)n(-c4ccccc4)nc-3c2c1 [Compound 13j, N-Isopropyl-3-oxo-2-phenyl-2,3-dihydropyrazolo[3,4-d]pyrrolo[3,4-b]pyridine-7(5H)-carboxamide]		B (B indicates % inhibition <80% and >20%)	A (A indicates % inhibition >80%)
